Experimental findings from US20230025280A1, “PH RESPONSIVE COMPOSITIONS, FORMULATIONS, AND METHODS OF IMAGING A TUMOR” (ONCONANO MEDICINE, INC, priority 2019, published 2023) are described below.

One assay has as its system HNSCC specimen. Kind of assay: Fluorescence microscopy after spraying Compound 1 onto freshly frozen tissue sections. Also noted: species or system human. The conditions noted are these: sprayed ex vivo onto freshly frozen HNSCC sections. The source says: FIGS. 18A-18B describes fluorescence microscopy to confirm tumor-specific activation of Compound 1. […] DAPI was applied for nuclear staining (a) and Compound 1 for fluorescence visualization (b). […] RFU: relative fluorescence units.

The subject of a further assay is occult lesions. Kind of assay: Detection of occult disease by Compound 1 fluorescence. Type of assay: in vivo, human. The source says:
During surgery, intraoperative images of Compound 1 fluorescence were obtained from the primary tumors and metastatic lymph nodes as well as the surrounding tissue which include normal noncancerous tissues using NIR camera(s). This may be in vivo and/or ex vivo imaging of resected specimens. If the surgeon considered it safe, up to a maximum of 10 study related biopsies were taken from the regions with Compound 1 fluorescence that were otherwise not suspected as tumor clinically. Feasibility to image tumors with Compound 1 using multiple NIR cameras was evaluated.
Compound 1 fluorescence detected 5 additional occult lesions (1 patient with HNSCC and 4 patients with BC) otherwise missed by SOC preoperative surgery or during surgery or postoperative pathology. In 1 patient with HNSCC (ON1113) who had both a fluorescent and histopathological positive surgical margin, a satellite metastasis that was otherwise undetected by standard-of-care surgery was detected in the wound bed by Compound 1 fluorescence image-guided surgery.

Consider “PEO90-140-b-P(DBA60-150-r-ICG0-3-r-AMA0-3) [Compound 1]”, for which the “Fluorescence delineation on tissue sections” value in the assay on HNSCC specimen was “sharp delineation of fluorescence between the tumor and stromal tissue”. In the assay with occult lesions (1 patient with HNSCC and 4 patients with BC), the “Additional occult lesions detected” value was found to be 5. In addition, the “Other occult tumors detected by in vivo wound-bed imaging” value in the assay on occult lesions (missed by routine surgery, confirmed by pathology) is 2. In the assay on occult lesions (pathology specimens), the “Additional satellite lesions and second primaries detected ex vivo” value is on record as 3.
